Where no end group is shown, it is not given here. [ ]: non-standard residue; d: D form. hCit = NC(=O)NCCCC[C@H](N)C(=O)O
Tests used:
[1] = tested on: B16F1 HHDII cells that cannot express DR1; experiment: Tumour therapy, B16F1 HHDII lacking DR1 in HHDII/DR1 mice; assay type: in vivo, mouse; details: tumour without DR1
Excerpt: (§1) This is also true in the ALDOA immunised mice.

[2] = tested on: splenocytes from immunised mice; experiment: Ex vivo IL-10 ELISpot after peptide immunisation; details: mouse, in vivo
Procedure: (§2) C57BL/6 mice (Charles River, UK), HLA-DR4 mice (Model #4149, Taconic, USA), HLA-A2/DR1 (HHDII/DR1, Pasteur Institute), HLA-A2.1+/+HLA-DP4+/+hCD4+/+ (HLA-HHDII/DP4) transgenic mice (EM: 02221, European Mouse Mutant Archive) described in patent WO2013/017545 A1 (EMMA repository, France) were used, aged between 8 and 12 weeks. Peptides were dissolved in PBS to 1 mg/ml and then emulsified (a series of dilutions) with CpG ODN 1826 and MPLA 6 μg/mouse of each (Invivogen, UK). Peptides (25 μg/mouse) were injected subcutaneously at the base of the tail. Mice were immunised at days 1, 7 and 14 for peptide immunisation. Spleens were removed for analysis at day 21 unless stated otherwise.
(§3) ELISpot assays were performed using murine IFNγ, IL-17 and IL-10 capture and detection reagents according to the manufacturer's instructions (Mabtech, Sweden). In brief, anti-IFNγ, IL-17 and IL-10 specific antibodies were coated onto wells of 96-well Immobilin-P plate. […] After incubation, captured IFNγ, IL-10 and IL-17 were detected by biotinylated anti-IFNγ, IL-10 and IL-17 antibodies and developed with a streptavidin alkaline phosphatase and chromogenic substrate. […] Spots were analysed and counted using an automated plate reader (Cellular Technologies Ltd).

[3] = tested on: tumour cells that were not able to express HLA-DR4; experiment: Tumour therapy, B16F1 lacking DR4 in HLA-DR4 mice; assay type: in vivo, mouse; details: tumour without HLA-DR4
Excerpt: as §1

[4] = tested on: B16F1 DR4 tumours; experiment: Tumour therapy, B16F1 DR4 tumour in DR4 mice; assay type: in vivo, mouse; details: peptide with CpG/MPLA days 4, 11, 18
Excerpt: To determine if the epitopes that stimulate T cell responses are presented on MHC-II within the tumour environment, our homocitrullinated peptides were checked for tumour therapy in B16 tumour models. Mice were implanted with tumour cells on day 1 and then immunised with peptides and CpG/MPLA on days 4, 11 and 18.
HHDII/DR1 (FIG. 19a) or DR4 (FIG. 19b) transgenic mice were challenged with B16F1 HHDII/DR1 or B16F1 DR4 tumours respectively prior to immunisation with vimentin 116-135Hcit peptide and tumour growth and survival were monitored.

[5] = tested on: C57BI/6 mice; experiment: Ex vivo IFNγ ELISpot after peptide immunisation, C57Bl/6 mice; assay type: in vivo, mouse
Procedure: as §2, §3
Significant IFNγ responses were detected to peptide vimentin 116-135 Hcit. […]

[6] = tested on: B16HHDII/iDP4 tumour cells; experiment: Tumour therapy, B16HHDII/iDP4 tumour in HHDII/DP4 mice; assay type: in vivo, mouse; details: peptide with CpG/MPLA
Procedure: For tumour challenge experiments, mice were challenged with B16F1 cells s.c. on the right flank 3 days before primary immunisation (unless stated otherwise) and subsequently immunised as above. Tumour implants were carried out at dose of 2.5×10^4 cells/mouse for B16F1, 2.5×10^4 cells/mouse for B16F1 DR4, 4×10^5 cells/mouse for B16F1 HHDII/DP4, 5×10^5 cells/mouse for B16 HHDII/DR1, 1×10^5 cells/mouse for B16F1 HHDII/inducibleDP4, 5×10^4 cells/mouse for B16F1 inducible DR4. For studies involving depletion antibodies, 250 μg anti-mouse Ly6C antibody (clone Monts, BioXcell) was administered i.p. on days 8, 10, 12, 15, 17 and 19. 400 μg anti-mouse Ly6G antibody (clone 1A8, Biolegend) was administered i.p. on day 8 followed by 250 μg on days 11, 15 and 18. Anti-human CD4 antibody (clone OKT4, BioXcell) or anti-mouse CD8 antibody (clone 2.43, BioXcell) were administered at 500 μg dose on day 4 followed by 300 μg dose on days 8 and 11. Tumour growth was monitored twice weekly and mice were humanely euthanised once tumour reached ≥15 mm in diameter.
To provide further evidence for the role of CD4 T cell responses in tumour therapy HHDII/DP4 mice were implanted with B16HHDII/iDP4 tumour cells on day 1 and then immunised with peptides and CpG/MPLA on days 4, 8 and 11. Concurrent with peptide immunisation mice were also treated with CD4 or CD8 depleting antibody and tumour growth monitored. […] To show whether cyanate/isocyanic acid can cross cell membranes B16F1 melanoma cell line was cultured in vitro in the presence or absence of potassium cyanate which is in dynamic equilibrium with isocyanic acid. As a positive control lysates were also produced from in vitro cultured B16F1 cells and then treated with or without KCNO.

For “NYID-Hcit-VRFLEQQN-Hcit-ILLAEL (NYID[hCit]VRFLEQQN[hCit]ILLAEL) [Vimentin 116-135 Hcit]”, the survival vs control [1] was “no survival advantage”, the “IL-10 ELISpot response” value [2] was “no production” and the survival rate [3] was 20%. For the same substance, the overall survival [4] was 70% and the “IFNγ ELISpot response” value [5] was “no IFNγ responses were observed”.

In the case of “LREYQELMNV-hcit-LALDIEI (LREYQELMNV[hCit]LALDIEI) [Cyk8 371-388 Hcit]”, the “tumour growth / survival vs control” value [6] is reported as “Significant prevention of tumour growth”.

Source: patent US12458688B2, “Epitopes” (Scancell Limited, priority 2018, dated 2025)
